In this data set the test system is Danio rerio embryos. To be noted: 96 h exposure, cyclophosphamide solution 1306 mg L^-1.
The mark [1] stands for this setting: materials: maintenance water after 1.5 h contact with the material.

SMILES strings stand for the structures.

Procedure: Aiming to identify the ability of this material to decrease and/or remove the toxicity of the water samples treated, an ecotoxicity test was carried out resorting to assays with Danio rerio embryos. […] Assays with embryos of D. rerio were performed according to the Organisation for Economic Co-operation and Development (OECD) guideline 236 on Fish Embryo Acute Toxicity (FET) Test (OECD, 2013), with small adaptations.
Zebrafish embryos were exposed for 96 h, at a temperature of 26 ± 1 °C and a 16:8h light/dark photoperiod, and observations were made at each 24 h (i.e., 24, 48, 72, and 96 hours) with the help of a stereomicroscope (Zoom-SMZ 1500, Nikon Corporation).
In an embodiment, besides the mortality endpoint (that included coagulated eggs, arrested development, or lack of heartbeat), the sublethal endpoints concerning the hatching rate, final body length, and malformations (such as tail and skeletal malformations, oedemas, and delayed development) (Lammer et al. 2009; "Is the fish embryo toxicity test (FET) with the zebrafish (Danio rerio) a potential alternative for the fish acute toxicity test?" Comp. Biochem. Physiol. Part - C: Toxicol. Pharmacol. 149 (2):196 - 209) were also evaluated. […] Mortality, hatching rate, and percentage of abnormalities were expressed considering the total number of embryos exposed to the different treatments, while the final body length endpoint was evaluated concerning the number of alive larvae at the end of the assay.

As a reminder, the mortality is the share of the test organisms that died. Consider `O=P1(N(CCCl)CCCl)NCCCO1` (stereo not drawn) [cyclophosphamide], for which, for the setting “control 5.4 ± 0.2 cm”, the “final body length of zebrafish larvae (average length)” value is 4.4 ± 0.4 cm. Further, under setting [1], the malformations is on record as 52% and the mortality is 20%.

For the origin of these results see patent EP4282522A1, “SILICA-SUPPORTED IONIC LIQUIDS FOR THE REMOVAL OF C[…] AQUEOUS SAMPLES” (Universidade de Aveiro, priority 2022, dated 2023).
